One test has as its target T1, human PRMT1 (Homo sapiens, UniProt Q99873).
T1 construct: GST-tagged PRMT1; made in house; host or cells: High Five insect cells (baculovirus)
Nature of the test: PRMT1 Biochemical Assay (3H-SAM Flashplate, peptide substrate). The conditions noted are these: 30 min preincubation. The source says:
Peptide representative of human histone H4 residues 36-50 was synthesized with an N-terminal linker-affinity tag motif and a C-terminal amide cap by 21st Century Biochemicals. The peptide was purified by high-performance liquid chromatography (HPLC) to greater than 95% purity and confirmed by liquid chromatography mass spectrometry (LC-MS). The sequence was Biot-Ahx-[…]-amide (SEQ ID NO.: 1).
Full-length human PRMT1 isoform 1 (NM_001536.5) transcript clone was amplified from an HEK 293 cDNA library, incorporating flanking 5′ sequence encoding a FLAG tag ([…]) (SEQ ID NO:2) fused directly to Met 1 of PRMT1. The amplified gene was subcloned into pFastBacI (Life Technologies) modified to encode an N-terminal GST tag and a TEV cleavage sequence
GST-tagged PRMT1 was eluted with 50 mM Tris, 2 mM glutathione, pH 7.8, dialysed in buffer A and concentrated to 1 mg/mL. The purity of recovered protein was 73%. Reference: Wasilko, D. J. and S. E. Lee: “TIPS: titerless infected-cells preservation and scale-up” Bioprocess J., 5 (2006), pp. 29-32.
General Procedure for PRMT1 Enzyme Assays on Peptide Substrates.
The assays were all performed in a buffer consisting of 20 mM Bicine (pH=7.6), 1 mM TCEP, 0.005% BSG, and 0.002% Tween 20, prepared on the day of use. Compounds in 100% DMSO (1 ul) were spotted into a polypropylene 384-well V-bottom plates (Greiner) using a Platemate Plus outfitted with a 384-channel head (Thermo Scientific). DMSO (1 ul) was added to Columns 11, 12, 23, 24, rows A-H for the maximum signal control and 1 ul of SAH, a known product and inhibitor of PRMT1, was added to columns 11, 12, 23, 24, rows I-P for the minimum signal control. A cocktail (40 ul) containing the PRMT1 enzyme was added by Multidrop Combi (Thermo-Fisher). The compounds were allowed to incubate with PRMT1 for 30 min at room temperature, then a cocktail (10 ul) containing SAM and peptide was added to initiate the reaction (final volume=51 ul). The final concentrations of the components were as follows: PRMT1 was 0.5 nM, ^3H-SAM was 200 nM, non-radiolabeled SAM was 1.5 uM, peptide was 20 nM, SAH in the minimum signal control wells was 1 mM, and the DMSO concentration was 2%. The assays were stopped by the addition of non-radiolabeled SAM (10 ul) to a final concentration of 300 uM, which dilutes the ^3H-SAM to a level where its incorporation into the peptide substrate is no longer detectable. 50 ul of the reaction in the 384-well polypropylene plate was then transferred to a 384-well Flashplate and the biotinylated peptides were allowed to bind to the streptavidin surface for at least 1 hour before being washed once with 0.1% Tween20 in a Biotek ELx405 plate washer. The plates were then read in a PerkinElmer TopCount plate reader to measure the quantity of ^3H-labeled peptide bound to the Flashplate surface, measured as disintegrations per minute (dpm) or alternatively, referred to as counts per minute (cpm).
(§1) Where dpm=disintegrations per minute, cmpd=signal in assay well, and min and max are the respective minimum and maximum signal controls.
(§2) Where top and bottom are the normally allowed to float, but may be fixed at 100 or 0 respectively in a 3-parameter fit. The Hill Coefficient normally allowed to float but may also be fixed at 1 in a 3-parameter fit. Y is the % inhibition and X is the compound concentration.

The target of a further test is T2, human PRMT6 (Homo sapiens, UniProt Q96LA8).
T2 construct: Flag-PRMT6-His was eluted with 200 ug/ml FLAG peptide in the same buffer; made in house; host or cells: HEK 293F cells (BacMam baculovirus, pFastBacMam)
T2 sequence (Q96LA8 with tags, fused parts or gaps): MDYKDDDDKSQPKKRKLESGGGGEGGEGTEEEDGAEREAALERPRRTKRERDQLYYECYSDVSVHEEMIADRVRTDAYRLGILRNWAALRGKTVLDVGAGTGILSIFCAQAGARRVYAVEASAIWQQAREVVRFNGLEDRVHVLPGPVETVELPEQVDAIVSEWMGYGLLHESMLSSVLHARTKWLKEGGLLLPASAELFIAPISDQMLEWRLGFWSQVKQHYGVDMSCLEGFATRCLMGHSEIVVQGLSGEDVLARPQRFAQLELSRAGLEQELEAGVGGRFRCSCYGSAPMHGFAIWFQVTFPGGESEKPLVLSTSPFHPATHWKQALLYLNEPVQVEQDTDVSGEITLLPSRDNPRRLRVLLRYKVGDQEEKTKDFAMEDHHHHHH
Nature of the test: PRMT6 Biochemical Assay (3H-SAM Flashplate, peptide substrate). The settings on record: 30 min preincubation.
From the text: Peptide representative of human histone H4 residues 36-50 was synthesized with an N-terminal linker-affinity tag motif and a C-terminal amide cap by 21st Century Biochemicals. The peptide was purified by high-performance liquid chromatography (HPLC) to greater than 95% purity and confirmed by liquid chromatography mass spectrometry (LC-MS). The sequence was Biot-Ahx-[…]-amide and contained a monomethylated lysine at position 44 (SEQ ID NO:5).
Full-length human PRMT6 (NM_018137.2) transcript clone was amplified from an HEK 293 cDNA library, incorporating a flanking 5′ sequence encoding a FLAG tag ([…]) (SEQ ID NO:6) fused directly to Ser 2 of PRMT6 and a 3′ sequence encoding a hexa His sequence (HHHHHH) fused directly to Asp 375. The amplified gene was subcloned into pFastBacMam (Viva Biotech).
Column was washed with 20 mM imidazole in the same buffer and Flag-PRMT6-His was eluted with 150 mM imidazole. Pooled fractions were dialysed against buffer Ni-A and further purified by anti-flag M2 affinity chromatography. Flag-PRMT6-His was eluted with 200 ug/ml FLAG peptide in the same buffer. Pooled fractions were dialysed in 20 mM Tris, 150 mM NaCl, 10% glycerol and 5 mM 3-mercaptoethanol, pH 7.8. The purity of recovered protein was 95%.
General Procedure for PRMT6 Enzyme Assays on Peptide Substrates.
The assays were all performed in a buffer consisting of 20 mM Bicine (pH=7.6), 1 mM TCEP, 0.005% BSG, and 0.002% Tween 20, prepared on the day of use. Compounds in 100% DMSO (1 ul) were spotted into a polypropylene 384-well V-bottom plates (Greiner) using a Platemate Plus outfitted with a 384-channel head (Thermo Scientific). DMSO (1 ul) was added to Columns 11, 12, 23, 24, rows A-H for the maximum signal control and 1 ul of SAH, a known product and inhibitor of PRMT6, was added to columns 11, 12, 23, 24, rows I-P for the minimum signal control. A cocktail (40 ul) containing the PRMT6 enzyme was added by Multidrop Combi (Thermo-Fisher). The compounds were allowed to incubate with PRMT6 for 30 min at room temperature, then a cocktail (10 ul) containing SAM and peptide was added to initiate the reaction (final volume=51 ul). The final concentrations of the components were as follows: PRMT6 was 1 nM, ^3H-SAM was 200 nM, non-radiolabeled SAM was 250 nM, peptide was 75 nM, SAH in the minimum signal control wells was 1 mM, and the DMSO concentration was 2%. The assays were stopped by the addition of non-radiolabeled SAM (10 ul) to a final concentration of 400 uM, which dilutes the ^3H-SAM to a level where its incorporation into the peptide substrate is no longer detectable. 50 ul of the reaction in the 384-well polypropylene plate was then transferred to a 384-well Flashplate and the biotinylated peptides were allowed to bind to the streptavidin surface for at least 1 hour before being washed once with 0.1% Tween20 in a Biotek ELx405 plate washer. The plates were then read in a PerkinElmer TopCount plate reader to measure the quantity of ^3H-labeled peptide bound to the Flashplate surface, measured as disintegrations per minute (dpm) or alternatively, referred to as counts per minute (cpm).
as §1, §2

The test system of test [1] is mono-methyl arginine in RKO cells. Nature of the test: RKO Methylation Assay, In Cell Western for mono-methyl arginine. It counts as cell-based. The settings on record: Homo sapiens, 72 hours, percent activation of mono-methyl arginine signal. The source says:
RKO adherent cells were purchased from ATCC (American Type Culture Collection), Manassas, Va., USA. DMEM/Glutamax medium, penicillin-streptomycin, heat inactivated fetal bovine serum, 0.05% trypsin and D-PBS were purchased from Life Technologies, Grand Island, N.Y., USA. Odyssey blocking buffer, 800 CW goat anti-rabbit IgG (H+L) antibody, and Licor Odyssey infrared scanner were purchased from Licor Biosciences, Lincoln, Nebr., USA. Mono-methyl arginine antibody was purchased from Cell Signaling Technology, Danvers, Mass., USA. Methanol was purchased from VWR, Franklin, Mass., USA. 10% Tween 20 was purchased from KPL, Inc., Gaithersburg, Md., USA. DRAQ5 was purchased from Biostatus Limited, Leicestershire, UK.
RKO adherent cells were maintained in growth medium (DMEM/Glutamax medium supplemented with 10% v/v heat inactivated fetal bovine serum and 100 units/mL penicillin-streptomycin) and cultured at 37° C. under 5% CO2.
Cell Treatment, in Cell Western (ICW) for Detection of Mono-Methyl Arginine and DNA Content.
RKO cells were seeded in assay medium at a concentration of 20,000 cells per mL to a poly-D-lysine coated 384 well culture plate (BD Biosciences 356697) with 50 μL per well. Compound (100 nL) from a 96-well source plate was added directly to 384 well cell plate. Plates were incubated at 37° C., 5% CO2 for 72 hours. After three days of incubation, plates were brought to room temperature outside of the incubator for ten minutes and blotted on paper towels to remove cell media. 50 μL of ice cold 100% methanol was added directly to each well and incubated for 30 min at room temperature. After 30 min, plates were transferred to a Biotek EL406 plate washer and washed 2 times with 100 μL per well of wash buffer (IX PBS). Next 60 μL per well of Odyssey blocking buffer (Odyssey Buffer with 0.1% Tween 20 (v/v)) were added to each plate and incubated 1 hour at room temperature. Blocking buffer was removed and 20 μL per well of primary antibody was added (mono-methyl arginine diluted 1:200 in Odyssey buffer with 0.1% Tween 20 (v/v)) and plates were incubated overnight (16 hours) at 4° C. Plates were washed 5 times with 100 μL per well of wash buffer. Next 20 μL per well of secondary antibody was added (1:200 800 CW goat anti-rabbit IgG (H+L) antibody, 1:1000 DRAQ5 (Biostatus limited) in Odyssey buffer with 0.1% Tween 20 (v/v)) and incubated for 1 hour at room temperature. The plates were washed 5 times with 100 μL per well wash buffer then 2 times with 100 μL per well of water. Plates were allowed to dry at room temperature then imaged on the Licor Odyssey machine which measures integrated intensity at 700 nm and 800 nm wavelengths. Both 700 and 800 channels were scanned.
First, the ratio for each well was determined by:
Each plate included fourteen control wells of DMSO only treatment (minimum activation) as well as fourteen control wells for maximum activation treated with 20 μM of a reference compound. The average of the ratio values for each control type was calculated and used to determine the percent activation for each test well in the plate. Reference compound was serially diluted three-fold in DMSO for a total of nine test concentrations, beginning at 20 μM. Percent activation was determined and EC30 curves were generated using triplicate wells per concentration of compound.

The next test has as its target T3, human PRMT8 (Homo sapiens, UniProt Q9NR22).
T3 construct: Full-length human PRMT8 (NM_019854.4) isoform 1 transcript clone; GST (N, cleaved yes); made in house; host or cells: E. coli BL21(DE3) Gold
Put plainly: PRMT8 Biochemical Assay (3H-SAM Flashplate, peptide substrate). The settings on record: 30 min preincubation.
From the text: Peptide representative of human histone H4 residues 31-45 was synthesized with an N-terminal linker-affinity tag motif and a C-terminal amide cap by 21st Century Biochemicals. The peptide was purified by high-performance liquid chromatography (HPLC) to greater than 95% purity and confirmed by liquid chromatography mass spectrometry (LC-MS). The sequence was Biot-Ahx-[…]-amide (SEQ ID NO:8).
The resulting construct encodes an N-terminal GST tag and a thrombin cleavage sequence
GST-tagged PRMT8 was eluted with 50 mM Tris, 2 mM glutathione, pH 7.8. Pooled fractions were cleaved by thrombin (10 U) and dialysed in buffer A. GST was removed by reloading the cleaved protein sample onto glutathione sepharose column and PRMT8 was collected in the flow-through fractions. PRMT8 was purified further by ceramic hydroxyapatite chromatography. The column was washed with 50 mM phosphate buffer, 100 mM NaCl, 5% glycerol, 5 mM 3-mercaptoethanol, pH 7.8 and PRMT8 was eluted by 100 mM phosphate in the same buffer. Protein was concentrated and buffer was exchanged to 50 mM Tris, 300 mM NaCl, 10% glycerol, 5 mM β-mercaptoethanol, pH 7.8 by ultrafiltration. The purity of recovered protein was 89%.
General Procedure for PRMT8 Enzyme Assays on Peptide Substrates.
The assays were all performed in a buffer consisting of 20 mM Bicine (pH=7.6), 1 mM TCEP, 0.005% BSG, and 0.002% Tween 20, prepared on the day of use. Compounds in 100% DMSO (1 ul) were spotted into a polypropylene 384-well V-bottom plates (Greiner) using a Platemate Plus outfitted with a 384-channel head (Thermo Scientific). DMSO (1 ul) was added to Columns 11, 12, 23, 24, rows A-H for the maximum signal control and 1 ul of SAH, a known product and inhibitor of PRMT8, was added to columns 11, 12, 23, 24, rows I-P for the minimum signal control. A cocktail (40 ul) containing the PRMT8 enzyme was added by Multidrop Combi (Thermo-Fisher). The compounds were allowed to incubate with PRMT8 for 30 min at room temperature, then a cocktail (10 ul) containing ^3H-SAM and peptide was added to initiate the reaction (final volume=51 ul). The final concentrations of the components were as follows: PRMT8 was 1.5 nM, ^3H-SAM was 50 nM, non-radiolabeled SAM was 550 nM, peptide was 150 nM, SAH in the minimum signal control wells was 1 mM, and the DMSO concentration was 2%. The assays were stopped by the addition of non-radiolabeled SAM (10 ul) to a final concentration of 400 uM, which dilutes the ^3H-SAM to a level where its incorporation into the peptide substrate is no longer detectable. 50 ul of the reaction in the 384-well polypropylene plate was then transferred to a 384-well Flashplate and the biotinylated peptides were allowed to bind to the streptavidin surface for at least 1 hour before being washed once with 0.1% Tween20 in a Biotek ELx405 plate washer. The plates were then read in a PerkinElmer TopCount plate reader to measure the quantity of ^3H-labeled peptide bound to the Flashplate surface, measured as disintegrations per minute (dpm) or alternatively, referred to as counts per minute (cpm).
as §1, §2

The structures appear in SMILES notation.

T1 sequence (Q99873 with tags, fused parts or gaps): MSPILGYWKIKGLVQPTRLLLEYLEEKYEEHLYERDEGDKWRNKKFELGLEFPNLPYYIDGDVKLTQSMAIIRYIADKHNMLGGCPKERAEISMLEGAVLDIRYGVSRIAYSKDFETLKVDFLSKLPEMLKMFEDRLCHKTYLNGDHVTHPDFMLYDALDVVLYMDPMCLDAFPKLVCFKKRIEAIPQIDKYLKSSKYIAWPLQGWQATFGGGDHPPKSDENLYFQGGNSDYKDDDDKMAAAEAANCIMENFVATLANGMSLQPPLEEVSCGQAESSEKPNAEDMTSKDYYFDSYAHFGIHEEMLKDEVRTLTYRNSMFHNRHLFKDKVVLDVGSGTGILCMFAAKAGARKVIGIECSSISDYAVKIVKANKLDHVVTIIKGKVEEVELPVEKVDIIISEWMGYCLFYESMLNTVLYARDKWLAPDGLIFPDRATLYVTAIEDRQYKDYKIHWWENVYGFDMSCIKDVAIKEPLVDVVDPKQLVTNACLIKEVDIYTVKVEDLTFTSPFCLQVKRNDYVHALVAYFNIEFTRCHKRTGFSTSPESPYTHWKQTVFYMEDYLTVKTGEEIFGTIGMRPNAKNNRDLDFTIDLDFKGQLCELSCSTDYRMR
T3 sequence (Q9NR22 whole entry, canonical isoform): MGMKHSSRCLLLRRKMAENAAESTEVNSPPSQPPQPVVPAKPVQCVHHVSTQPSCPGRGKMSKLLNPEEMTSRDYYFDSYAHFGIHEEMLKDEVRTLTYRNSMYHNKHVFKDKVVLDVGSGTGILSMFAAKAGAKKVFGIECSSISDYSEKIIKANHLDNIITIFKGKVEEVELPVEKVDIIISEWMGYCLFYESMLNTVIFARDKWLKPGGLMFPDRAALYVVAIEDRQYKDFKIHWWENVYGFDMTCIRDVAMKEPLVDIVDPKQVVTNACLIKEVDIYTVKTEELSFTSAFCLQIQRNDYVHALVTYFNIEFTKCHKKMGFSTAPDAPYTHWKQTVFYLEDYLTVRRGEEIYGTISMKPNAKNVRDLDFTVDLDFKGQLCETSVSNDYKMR

`CN(CCN)Cc1c[nH]nc1C1CC1` [Compound 12]: the IC50 at human PRMT1 and at human PRMT6 was 1010 to 3000 nM each time.

As for `CN(CCN)Cc1c[nH]nc1C(C)(C)C` [Compound 27], the IC50 (in general, the midpoint of a concentration-inhibition curve) at human PRMT6 was in the range of 1010 to 3000 nM. Besides, the EC30 (usually the point of the concentration-response curve where the effect stands at 30%) in test [1] is greater than 12000 nM.

As for `CNCCN(C)Cc1c[nH]nc1C1CCN(C(=O)CC(C)C)CC1` [Compound 40, 3-methyl-1-(4-(4-((methyl(2-(methylamino)ethyl)amino)methyl)-1H-pyrazol-3-yl)piperidin-1-yl)butan-1-one], the IC50 is less than 100 nM against human PRMT6 and 101 to 1000 nM against human PRMT8.

Consider `CN(CCN)Cc1c[nH]nc1C1CCC(N2CCOCC2)CC1` (centres unmarked) [Compound 43, N^1-methyl-N^1-((3-(4-morpholinocyclohexyl)-1H-pyrazol-4-yl)methyl)ethane-1,2-diamine], for which the IC50 at human PRMT6 was less than 100 nM. In test [1], this compound registered an EC30 of less than 3000 nM.

The values are drawn from patent US11185531B2, “Arginine methyltransferase inhibitors and uses thereof” (Epizyme, Inc., priority 2013, dated 2021).
